Experiment [1] addresses T1, TBK1 (Homo sapiens, UniProt Q9UHD2).
T1 sequence (Q9UHD2 1-729): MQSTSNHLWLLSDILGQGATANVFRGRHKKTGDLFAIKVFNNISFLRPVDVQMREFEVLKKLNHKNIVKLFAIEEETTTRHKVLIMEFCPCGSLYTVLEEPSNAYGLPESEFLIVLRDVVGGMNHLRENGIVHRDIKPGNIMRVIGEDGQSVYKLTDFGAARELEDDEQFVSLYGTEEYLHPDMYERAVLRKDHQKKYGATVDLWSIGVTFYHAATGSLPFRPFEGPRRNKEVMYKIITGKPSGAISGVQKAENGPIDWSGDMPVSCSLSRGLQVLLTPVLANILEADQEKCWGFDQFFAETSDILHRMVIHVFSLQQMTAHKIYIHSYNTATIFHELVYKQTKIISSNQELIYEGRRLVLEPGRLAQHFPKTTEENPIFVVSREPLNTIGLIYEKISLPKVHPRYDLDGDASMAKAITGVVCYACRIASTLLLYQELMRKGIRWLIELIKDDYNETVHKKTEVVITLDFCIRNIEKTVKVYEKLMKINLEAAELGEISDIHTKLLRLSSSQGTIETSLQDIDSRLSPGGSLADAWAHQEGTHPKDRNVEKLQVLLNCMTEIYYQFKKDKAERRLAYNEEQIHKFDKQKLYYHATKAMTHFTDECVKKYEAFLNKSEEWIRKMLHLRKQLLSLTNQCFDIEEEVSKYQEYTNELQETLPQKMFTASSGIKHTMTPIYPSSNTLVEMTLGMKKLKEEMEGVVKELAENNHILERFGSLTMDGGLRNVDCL
The experiment can be described thus: TBK biochemical assay. Particulars: 10 point 1:4 dose response, 30 uM top concentration, 90 min at 25° C., LabChip EZ Reader II; read-out: TBK1_IC50. The essentials:
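Substrate and product were separated and quantified by microfluidic mobility-shift read (LabChip). 10 uM staurosporine served as the full-inhibition control, and the reference compound was tested from 1 uM final.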

Experiment [2] deals with T2, IKKε (Homo sapiens, UniProt Q14164).
T2 sequence (Q14164 1-716): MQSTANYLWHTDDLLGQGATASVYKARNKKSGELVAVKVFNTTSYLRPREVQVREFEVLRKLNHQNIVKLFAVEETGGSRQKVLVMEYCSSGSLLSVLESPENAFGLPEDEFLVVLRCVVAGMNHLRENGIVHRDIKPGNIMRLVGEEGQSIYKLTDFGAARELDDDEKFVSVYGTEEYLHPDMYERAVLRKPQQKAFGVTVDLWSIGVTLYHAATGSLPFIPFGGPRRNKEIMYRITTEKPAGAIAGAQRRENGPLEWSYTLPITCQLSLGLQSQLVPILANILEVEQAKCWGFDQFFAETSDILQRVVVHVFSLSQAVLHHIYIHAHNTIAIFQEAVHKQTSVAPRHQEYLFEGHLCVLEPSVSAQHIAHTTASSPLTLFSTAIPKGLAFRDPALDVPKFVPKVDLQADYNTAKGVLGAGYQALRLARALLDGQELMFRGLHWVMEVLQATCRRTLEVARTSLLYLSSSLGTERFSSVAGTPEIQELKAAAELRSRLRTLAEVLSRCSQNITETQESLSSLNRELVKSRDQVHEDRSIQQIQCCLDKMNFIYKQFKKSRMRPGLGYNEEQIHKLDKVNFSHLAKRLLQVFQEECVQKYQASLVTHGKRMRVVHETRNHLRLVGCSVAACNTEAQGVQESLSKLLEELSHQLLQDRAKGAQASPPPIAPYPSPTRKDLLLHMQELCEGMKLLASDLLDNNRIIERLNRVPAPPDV
The experiment can be described thus: IKKε biochemical assay. Particulars: 10 point 1:4 dose response, 30 uM top concentration, 90 min at 25° C., LabChip EZ Reader II; read-out: IKKε_IC50. In short, it runs like this:
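Compounds in 1% DMSO final were incubated with IKKε enzyme and substrate at 25° C. for 90 min, then stopped. Substrate and product peaks were resolved by LabChip EZ Reader II mobility-shift read-out. Staurosporine at 10 uM final served as the full-inhibition control.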

Data on 17 compounds can be found in US20230019491A1, “PYRIMIDINE TBK/IKKe INHIBITOR COMPOUNDS AND USES THEREOF” (Merck Patent GmbH, priority 2017, published 2023).

Counter-ions that a name gives are not always drawn. Some results are limits rather than exact numbers.

For `COc1nc(Nc2nccc(-c3ccc(N4CC5(CCN(C(=O)[C@@H](O)CO)CC5)C4)c(C#N)c3)n2)ccc1N1CCN(C2COC2)CC1` [Example 315, 2-[7-((S)-2,3-Dihydroxy-propionyl)-2,7-diaza-spiro[3.5]non-2-yl]-5-{2-[6-methoxy-5-(4-oxetan-3-yl-piperazin-1-yl)-pyridin-2-ylamino]-pyrimidin-4-yl}-benzonitrile], the IC50 in experiment [1] and in experiment [2] was under 100 nM each time.

On to `COc1nc(Nc2nccc(-c3ccc(OC4CCN(C(=O)[C@H](C)O)C4)c(C#N)c3)n2)ccc1N1CCN(C2COC2)CC1` (stereo partly drawn) [Example 183, 2-([1-[(2S)-2-hydroxypropanoyl]pyrrolidin-3-yl]oxy)-5-[2-([6-methoxy-5-[4-(oxetan-3-yl)piperazin-1-yl]pyridin-2-yl]amino)pyrimidin-4-yl]benzonitrile], for which the IC50 in experiment [1] and in experiment [2] was under 100 nM throughout.

With `COc1cc(Nc2nccc(-c3ccc(OC4CCN(C(=O)[C@H](C)O)CC4)c(C#N)c3)n2)ncc1N1CCN(C2COC2)CC1` [Example 318, 2-([1-[(2S)-2-hydroxypropanoyl]piperidin-4-yl]oxy)-5-[2-([4-methoxy-5-[4-(oxetan-3-yl)piperazin-1-yl]pyridin-2-yl]amino)pyrimidin-4-yl]benzonitrile], the IC50 in experiment [1] and in experiment [2] was 100 to 1000 nM in each case.

As for `COc1nc(Nc2nccc(-c3ccc(OC4CCN(C(=O)C(O)C5CC5)CC4(F)F)c(C#N)c3)n2)ccc1C1CCN(C2COC2)CC1` (stereo not shown) [Example 239, 2-[1-(2-Cyclopropyl-2-hydroxy-acetyl)-3,3-difluoro-piperidin-4-yloxy]-5-[2-(2-methoxy-1′-oxetan-3-yl-1′,2′,3′,4′,5′,6′-hexahydro-[3,4′]bipyridinyl-6-ylamino)-pyrimidin-4-yl]-benzonitrile], the IC50 in experiment [1] and in experiment [2] was under 100 nM in each case.

Turning to `COc1nc(Nc2ncc(F)c(-c3ccc(OC4CCN(C(=O)[C@H](C)O)CC4(F)F)c(C#N)c3)n2)ccc1N1CCN(C2COC2)CC1` (stereo partly drawn) [Example 292, 2-({3,3-difluoro-1-[(2S)-2-hydroxypropanoyl]piperidin-4-yl}oxy)-5-[5-fluoro-2-({6-methoxy-5-[4-(oxetan-3-yl)piperazin-1-yl]pyridin-2-yl}amino)pyrimidin-4-yl]benzonitrile], the IC50 in experiment [1] and in experiment [2] was under 100 nM throughout.

In the case of `COc1nc(Nc2nccc(-c3ccc(OC4CCOCC4)c(C#N)c3)n2)ccc1C1CCN(C)CC1` [Example 40, 5-(2-[[6-methoxy-5-(1-methylpiperidin-4-yl)pyridin-2-yl]amino]pyrimidin-4-yl)-2-(oxan-4-yloxy)benzonitrile], the IC50 in experiment [1] and in experiment [2] was under 100 nM each time.

Consider `C[C@H](O)C(=O)N1CCC(Oc2ccc(-c3ccnc(Nc4ccc(N5CCN(C6COC6)CC5)cc4)n3)nc2C#N)C(F)(F)C1` (stereo partly drawn) [Example 306, 3-([33-difluoro-1-[(2S)-2-hydroxypropanoyl]piperidin-4-yl]oxy)-6-[2-([4-[4-(oxetan-3-yl)piperazin-1-yl]phenyl]amino)pyrimidin-4-yl]pyridine-2-carbonitrile], for which the IC50 in experiment [1] and in experiment [2] was under 100 nM each time.

`COc1nc(Nc2nccc(-c3ccc(OC4CCN(C(=O)[C@@H](C)O)CC4(F)F)c(C#N)c3)n2)ccc1C(=O)N(C)C` (stereo partly drawn) [Example 325, 6-([4-[3-cyano-4-([3,3-difluoro-1-[(2R)-2-hydroxypropanoyl]piperidin-4-yl]oxy)phenyl]pyrimidin-2-yl]amino)-2-methoxy-N,N-dimethylpyridine-3-carboxamide]: the IC50 in experiment [1] and in experiment [2] was under 100 nM each time.

On to `CN1CCC(c2ccc(Nc3nccc(-c4ccc(OC5CCN(C(=O)CO)CC5(F)F)c(C#N)c4)n3)cc2)CC1` (stereo not shown) [Example 148, 2-[[3,3-difluoro-1-(2-hydroxyacetyl)piperidin-4-yl]oxy]-5-(2-[[4-(1-methylpiperidin-4-yl)phenyl]amino]pyrimidin-4-yl)benzonitrile], for which the IC50 in experiment [1] and in experiment [2] was under 100 nM throughout.

`COc1nc(Nc2ncc(C)c(-c3ccc(OC4CCN(C(=O)[C@@H](C)O)CC4(F)F)c(C#N)c3)n2)ccc1N1CCN(C2COC2)CC1` (stereo partly drawn) [Example 286, 2-([33-difluoro-1-[(2R)-2-hydroxypropanoyl]piperidin-4-yl]oxy)-5-[2-([6-methoxy-5-[4-(oxetan-3-yl)piperazin-1-yl]pyridin-2-yl]amino)-5-methylpyrimidin-4-yl]benzonitrile]: the IC50 in experiment [1] is under 100 nM; in experiment [2] it was 100 to 1000 nM.

Turning to `COc1nc(Nc2nccc(-c3ccc(OC4CCNCC4(F)F)c(C#N)c3)n2)ccc1C(=O)N(C)C` (stereo not shown) [Example 76, 6-[(4-[3-cyano-4-[(3,3-difluoropiperidin-4-yl)oxy]phenyl]pyrimidin-2-yl)amino]-2-methoxy-N,N-dimethylpyridine-3-carboxamide], the IC50 in experiment [1] and in experiment [2] was under 100 nM in each case.

With `COc1nc(Nc2nccc(-c3ccc(OC4CCNCC4)c(C#N)c3)n2)ccc1C(=O)N(C)C` [Example 72, 6-([4-[3-cyano-4-(piperidin-4-yloxy)phenyl]pyrimidin-2-yl]amino)-2-methoxy-N,N-dimethylpyridine-3-carboxamide], the IC50 in experiment [1] and in experiment [2] was under 100 nM throughout.

With `COc1nc(Nc2nccc(-c3ccc(OC4CCN(C(=O)[C@@H](C)O)CC4(F)F)c(C#N)c3)n2)ccc1C1CCN(C2COC2)CC1` (stereo partly drawn) [Example 330, 2-([3,3-difluoro-1-[(2R)-2-hydroxypropanoyl]piperidin-4-yl]oxy)-5-[2-([6-methoxy-5-[1-(oxetan-3-yl)piperidin-4-yl]pyridin-2-yl]amino)pyrimidin-4-yl]benzonitrile], the IC50 in experiment [1] and in experiment [2] was under 100 nM in each case.

`COc1cccc(Nc2nccc(-c3ccc(O[C@H]4CCN(C(=O)[C@H](C)O)CC4(F)F)c(C#N)c3)n2)n1` [Example 240, 2-[[(4S)-3,3-difluoro-1-[(2S)-2-hydroxypropanoyl]piperidin-4-yl]oxy]-5-[2-[(6-methoxypyridin-2-yl)amino]pyrimidin-4-yl]benzonitrile]: the IC50 in experiment [1] and in experiment [2] was 100 to 1000 nM throughout.

Turning to `COc1nc(Nc2nccc(-c3ccc(OC4CCN(C)C4)c(C#N)c3)n2)ccc1C(=O)N(C)C` (stereo not shown) [Example 70, 6-[(4-[3-cyano-4-[(1-methylpyrrolidin-3-yl)oxy]phenyl]pyrimidin-2-yl)amino]-2-methoxy-N,N-dimethylpyridine-3-carboxamide hydrochloride], the IC50 in experiment [1] and in experiment [2] was 100 to 1000 nM each time.

For `COc1nc(Nc2nccc(-c3ccc(O[C@@H]4CCN(C(=O)[C@H](C)O)CC4(F)F)c(C#N)c3)n2)ccc1N1CCN(C2COC2)CC1` [Example 122, 2-[[(4R)-3,3-difluoro-1-[(2S)-2-hydroxypropanoyl]piperidin-4-yl]oxy]-5-[2-([6-methoxy-5-[4-(oxetan-3-yl)piperazin-1-yl]pyridin-2-yl]amino)pyrimidin-4-yl]benzonitrile], the IC50 in experiment [1] and in experiment [2] was under 100 nM throughout.

Take `COc1nc(Nc2nccc(-c3ccc(OC4CCOCC4)c(C#N)c3)n2)ccc1C(=O)NC1C2COCC21` (stereo not shown) [Example 8, 6-([4-[3-cyano-4-(oxan-4-yloxy)phenyl]pyrimidin-2-yl]amino)-2-methoxy-N-[3-oxabicyclo[3.1.0]hexan-6-yl]pyridine-3-carboxamide]: the IC50 in experiment [1] and in experiment [2] was under 100 nM each time.
